Reference: US9326506B2, “Preparation method, agricultural composition and applications of natural brassinolide analogs” (CHENGDU NEWSUN CROPSCIENCE CO., LTD, priority 2012, dated 2016)

Tested on: rice
Assay: Low temperature assay on rice seedlings
Type: in vivo
Description: According to a low temperature assay, we measured parameters including plant height, number of leaf, area of leaf, number of tiller, weight of root at low temperature to completely determine effects of the natural brassinolide analogues on the resistance to low temperature of a plant.
The natural brassinolide analogues, BR1, BR2, BR3, BR4, BR5 and BR6, used herein, were those prepared by the method of Example 1. Respectively the analogues were dissolved into 95% (V/V) ethanol solution, and then diluted with pure water to 1 mg/L, 0.1 mg/L, 0.01 mg/L, 0.001 mg/L and 0.0001 mg/L. In addition, pure water was used as a control.
After rice seeds were disinfected by using 5% sodium hypochlorite solution treatment, they were rinsed with distilled water until their pH>7, placed into a petri dish in a dark incubator, and cultured by using water at 30° C.±2° C. for 9 days. Then respectively the nine-day-old etiolated seedlings of rice were immersed in the above solutions containing different concentrations of the natural brassinolide analogues or pure water, and cultured at the temperature of 1° C., 2° C., 3° C., 4° C. and 5° C. for 24 hr. The parameters including plant height, area of leaf and weight of root after 3, 6, 9 and 12 days and number of leaf and number of tiller after 12 days were measured.

## CC(C)[C@H](C)[C@@H](O)[C@H](O)[C@@H](C)[C@H]1CCC2C3CC(=O)C4C[C@H](O)CC[C@]4(C)C3CC[C@@]21C (stereo partly shown) [BR4]
0.01 mg/l, 3 °C, 9 days
  Height: 7.5 cm
  Weight of root: 2.9 g
0.01 mg/l, 3 °C, 12 days
  Area of leaf: 13.2 cm^2
  Height: 7.8 cm
  Number of leaf: 3
  Number of tiller: 2
  Weight of root: 2.9 g
0.01 mg/l, 4 °C, 3 days
  Area of leaf: 10.8 cm^2
  Height: 7 cm
  Weight of root: 2.5 g
0.01 mg/l, 4 °C, 6 days
  Area of leaf: 12.4 cm^2
  Height: 7.4 cm
  Weight of root: 2.7 g
0.01 mg/l, 4 °C, 9 days
  Area of leaf: 13 cm^2
  Height: 7.7 cm
  Weight of root: 2.9 g
0.01 mg/l, 4 °C, 12 days
  Area of leaf: 13.5 cm^2
  Height: 7.8 cm
  Number of leaf: 3
  Number of tiller: 2
  Weight of root: 3.0 g
0.01 mg/l, 5 °C, 3 days
  Area of leaf: 10.3 cm^2
  Height: 7.2 cm
  Weight of root: 2.8 g
0.01 mg/l, 5 °C, 6 days
  Area of leaf: 13.1 cm^2
  Height: 7.4 cm
  Weight of root: 3.0 g
0.01 mg/l, 5 °C, 9 days
  Area of leaf: 16.4 cm^2
  Height: 7.8 cm
  Weight of root: 3.4 g
0.01 mg/l, 5 °C, 12 days
  Area of leaf: 17 cm^2
  Height: 8.2 cm
  Number of leaf: 4
  Number of tiller: 3
  Weight of root: 3.9 g
0.1 mg/l, 1 °C, 3 days
  Area of leaf: 10 cm^2
  Height: 7.1 cm
  Weight of root: 2.8 g
0.1 mg/l, 1 °C, 6 days
  Area of leaf: 11 cm^2
  Height: 7.2 cm
  Weight of root: 2.9 g
0.1 mg/l, 1 °C, 9 days
  Area of leaf: 12.1 cm^2
  Height: 7.3 cm
  Weight of root: 3.3 g
0.1 mg/l, 1 °C, 12 days
  Area of leaf: 13.1 cm^2
  Height: 7.3 cm
  Number of leaf: 3
  Number of tiller: 3
  Weight of root: 3.6 g
0.1 mg/l, 2 °C, 3 days
  Area of leaf: 10.2 cm^2
  Height: 7.1 cm
  Weight of root: 2.8 g
0.1 mg/l, 2 °C, 6 days
  Area of leaf: 11.2 cm^2
  Height: 7.1 cm
  Weight of root: 3.1 g
0.1 mg/l, 2 °C, 9 days
  Area of leaf: 12.6 cm^2
  Height: 7.3 cm
  Weight of root: 3.1 g
0.1 mg/l, 2 °C, 12 days
  Area of leaf: 13.2 cm^2
  Height: 7.4 cm
  Number of leaf: 3
  Number of tiller: 3
  Weight of root: 3.2 g
0.1 mg/l, 3 °C, 3 days
  Area of leaf: 10.5 cm^2
  Height: 7.3 cm
  Weight of root: 2.5 g
0.1 mg/l, 3 °C, 6 days
  Area of leaf: 12 cm^2
  Height: 7.4 cm
  Weight of root: 2.7 g
0.1 mg/l, 3 °C, 9 days
  Area of leaf: 12.1 cm^2
  Height: 7.8 cm
  Weight of root: 2.7 g
0.1 mg/l, 3 °C, 12 days
  Area of leaf: 13.4 cm^2
  Height: 7.9 cm
  Number of leaf: 3
  Number of tiller: 2
  Weight of root: 2.9 g
0.1 mg/l, 4 °C, 3 days
  Area of leaf: 10.6 cm^2
  Height: 7.3 cm
  Weight of root: 2.5 g
0.1 mg/l, 4 °C, 6 days
  Area of leaf: 12 cm^2
  Height: 7.4 cm
  Weight of root: 2.6 g
0.1 mg/l, 4 °C, 9 days
  Area of leaf: 13.2 cm^2
  Height: 7.8 cm
  Weight of root: 2.9 g
0.1 mg/l, 4 °C, 12 days
  Area of leaf: 13.4 cm^2
  Height: 8 cm
  Number of leaf: 3
  Number of tiller: 2
  Weight of root: 3.1 g
0.1 mg/l, 5 °C, 3 days
  Area of leaf: 11 cm^2
  Height: 7.4 cm
  Weight of root: 2.9 g
0.1 mg/l, 5 °C, 6 days
  Area of leaf: 12.1 cm^2
  Height: 7.5 cm
  Weight of root: 3.1 g
0.1 mg/l, 5 °C, 9 days
  Area of leaf: 16.2 cm^2
  Height: 8 cm
  Weight of root: 3.5 g
0.1 mg/l, 5 °C, 12 days
  Area of leaf: 17.8 cm^2
  Height: 8.1 cm
  Number of leaf: 3
  Number of tiller: 2
  Weight of root: 4.1 g
1 mg/l, 1 °C, 3 days
  Area of leaf: 10 cm^2
  Height: 6.8 cm
  Weight of root: 2.6 g
1 mg/l, 1 °C, 6 days
  Area of leaf: 11 cm^2
  Height: 7 cm
  Weight of root: 3.1 g
1 mg/l, 1 °C, 9 days
  Area of leaf: 12.4 cm^2
  Height: 7.1 cm
  Weight of root: 3.2 g
1 mg/l, 1 °C, 12 days
  Area of leaf: 13 cm^2
  Height: 7.7 cm
  Number of leaf: 3
  Number of tiller: 3
  Weight of root: 3.7 g
1 mg/l, 2 °C, 3 days
  Area of leaf: 10.1 cm^2
  Height: 7 cm
  Weight of root: 2.55 g
1 mg/l, 2 °C, 6 days
  Area of leaf: 11.7 cm^2
  Height: 7.2 cm
  Weight of root: 3.0 g
1 mg/l, 2 °C, 9 days
  Area of leaf: 12 cm^2
  Height: 7.4 cm
  Weight of root: 3.2 g
1 mg/l, 2 °C, 12 days
  Area of leaf: 13 cm^2
  Height: 8 cm
  Number of leaf: 3
  Number of tiller: 3
  Weight of root: 3.7 g
1 mg/l, 3 °C, 3 days
  Area of leaf: 10.4 cm^2
  Height: 7 cm
  Weight of root: 2.5 g
1 mg/l, 3 °C, 6 days
  Area of leaf: 12 cm^2
  Height: 7.5 cm
  Weight of root: 2.6 g
1 mg/l, 3 °C, 9 days
  Area of leaf: 12 cm^2
  Height: 7.7 cm
  Weight of root: 2.6 g
1 mg/l, 3 °C, 12 days
  Area of leaf: 13.2 cm^2
  Height: 8.1 cm
  Number of leaf: 3
  Number of tiller: 2
  Weight of root: 2.9 g
1 mg/l, 4 °C, 3 days
  Area of leaf: 10.7 cm^2
  Height: 7.3 cm
  Weight of root: 2.5 g
1 mg/l, 4 °C, 6 days
  Area of leaf: 12 cm^2
  Height: 7.5 cm
  Weight of root: 2.7 g
1 mg/l, 4 °C, 9 days
  Area of leaf: 13.2 cm^2
  Height: 7.8 cm
  Weight of root: 3.0 g
1 mg/l, 4 °C, 12 days
  Area of leaf: 14 cm^2
  Height: 8.2 cm
  Number of leaf: 3
  Number of tiller: 2
  Weight of root: 3.2 g
1 mg/l, 5 °C, 3 days
  Area of leaf: 11.1 cm^2
  Height: 7.4 cm
  Weight of root: 2.9 g
1 mg/l, 5 °C, 6 days
  Area of leaf: 13 cm^2
  Height: 7.4 cm
  Weight of root: 3.5 g
1 mg/l, 5 °C, 9 days
  Area of leaf: 18 cm^2
  Height: 8.1 cm
  Weight of root: 3.7 g
1 mg/l, 5 °C, 12 days
  Area of leaf: 20 cm^2
  Height: 8.3 cm
  Number of leaf: 3
  Number of tiller: 2
  Weight of root: 4.5 g
